Experiment [1] deals with T1, human GLP-1 receptor (hGLP-1R) (Homo sapiens, UniProt P43220).
T1 construct: expressed in transfected cells; crude membranes
Nature of the experiment: [125I]-GLP-1 binding, SPA with membranes of HEK293 cells expressing hGLP-1R.

The next experiment has as its target T2, hGCGR (Homo sapiens, UniProt P47871).
T2 construct: expressed in transfected cells
Nature of the experiment: Functional cAMP formation (HTRF) in HEK-293 clonal cells expressing hGCGR, 0.1% bovine casein, without or with 1.0% human serum albumin. It counts as cell-based. In outline:
(§1)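 Cells were stimulated with peptide for 30 min at 37° C, then intracellular cAMP was measured by competitive HTRF (665/620 nm ratio) and converted to nM using a cAMP standard curve. Relative EC50 and Emax came from four-parameter logistic fits of percent maximal response against peptide concentration.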

The target of experiment [2] is T3, human GIP receptor (hGIPR) (Homo sapiens, UniProt P48546).
T3 construct: expressed in transfected cells; crude membranes
T3 sequence (P48546 22-466): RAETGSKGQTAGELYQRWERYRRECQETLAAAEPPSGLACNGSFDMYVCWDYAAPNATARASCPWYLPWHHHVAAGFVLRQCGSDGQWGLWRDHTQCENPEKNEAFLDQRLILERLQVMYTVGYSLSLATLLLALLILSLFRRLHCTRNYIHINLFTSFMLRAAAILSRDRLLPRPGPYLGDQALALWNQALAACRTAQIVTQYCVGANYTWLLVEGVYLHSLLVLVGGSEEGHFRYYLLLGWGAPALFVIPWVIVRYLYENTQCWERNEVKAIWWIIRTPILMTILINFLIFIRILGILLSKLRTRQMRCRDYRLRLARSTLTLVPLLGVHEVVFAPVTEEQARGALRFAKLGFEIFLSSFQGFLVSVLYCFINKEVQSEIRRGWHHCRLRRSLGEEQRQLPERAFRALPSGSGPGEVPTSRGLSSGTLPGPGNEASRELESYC
Kind of experiment: [125I]-GIP binding, SPA with membranes of CHO cells expressing hGIPR.

The target of the next experiment is T4, hGIPR (Homo sapiens, UniProt P48546).
T4 construct: expressed in transfected cells
T4 sequence (P48546 22-466): T3 sequence (P48546 22-466)
Nature of the experiment: Functional cAMP formation (HTRF) in HEK-293 clonal cells expressing hGIPR, 0.1% bovine casein, without or with 1.0% human serum albumin. Format: cell-based. In outline: as §1

In the next experiment the target is hGLP-1R (Homo sapiens, UniProt P43220). Kind of experiment: Functional cAMP formation (HTRF) in HEK-293 clonal cells expressing hGLP-1R, 0.1% bovine casein, without or with 1.0% human serum albumin. Format: cell-based. On the set-up: expressed in transfected cells. The conditions noted are these: for EC50: geometric mean; for Emax: percent of maximal response to GLP-1(7-36)NH2. A digest of the protocol:
as §1

Where [3] appears, read: human GLP-1R, geometric mean (SEM, n), read-out: Binding Affinity Ki, nM (SEM, n) hGLP-1R.
Setting [4] is: human GIPR, geometric mean (SEM, n), read-out: Binding Affinity Ki, nM (SEM, n) hGIPR.

Like-named read-outs stand apart in the source and are kept apart here.

T2 sequence (P47871 26-477): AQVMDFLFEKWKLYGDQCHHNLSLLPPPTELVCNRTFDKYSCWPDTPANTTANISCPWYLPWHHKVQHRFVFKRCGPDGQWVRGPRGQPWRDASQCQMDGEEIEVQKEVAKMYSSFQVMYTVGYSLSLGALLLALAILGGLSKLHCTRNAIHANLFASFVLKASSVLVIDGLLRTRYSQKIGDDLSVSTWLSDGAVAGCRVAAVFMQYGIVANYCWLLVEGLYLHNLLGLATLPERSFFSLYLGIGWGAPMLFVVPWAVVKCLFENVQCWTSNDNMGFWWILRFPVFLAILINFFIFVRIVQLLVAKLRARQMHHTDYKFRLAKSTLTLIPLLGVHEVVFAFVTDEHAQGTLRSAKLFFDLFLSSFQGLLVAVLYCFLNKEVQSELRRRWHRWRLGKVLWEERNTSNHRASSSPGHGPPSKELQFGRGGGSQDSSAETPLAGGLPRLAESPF
Chain of hGLP-1R (P43220 24-463): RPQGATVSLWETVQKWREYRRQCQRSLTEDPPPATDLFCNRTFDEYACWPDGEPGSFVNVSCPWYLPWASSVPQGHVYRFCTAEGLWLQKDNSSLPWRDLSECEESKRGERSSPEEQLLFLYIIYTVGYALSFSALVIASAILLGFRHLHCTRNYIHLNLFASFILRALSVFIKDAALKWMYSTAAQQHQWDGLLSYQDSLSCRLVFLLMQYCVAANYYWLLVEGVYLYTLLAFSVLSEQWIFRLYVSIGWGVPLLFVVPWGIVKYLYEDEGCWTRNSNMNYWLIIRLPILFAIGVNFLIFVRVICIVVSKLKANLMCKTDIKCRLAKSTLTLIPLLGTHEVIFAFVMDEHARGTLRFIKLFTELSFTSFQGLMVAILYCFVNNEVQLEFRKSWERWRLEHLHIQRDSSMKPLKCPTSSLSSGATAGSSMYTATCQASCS
T1 sequence (P43220 24-463): as above

`CCCCCCCCCCCC(=O)N[C@@H](CCC(=O)NCCOCCOCC(=O)NCCOCCOCC(=O)NCCCC[C@H](NC(=O)[C@H](CO)NC(=O)[C@@H]1CCCN1C(=O)[C@@H]1CCCN1C(=O)[C@@H]1CCCN1C(=O)[C@H](C)NC(=O)CNC(=O)[C@H](CO)NC(=O)[C@H](CO)NC(=O)[C@@H]1CCCN1C(=O)CNC(=O)CNC(=O)[C@H](CCC(=O)O)NC(=O)[C@@H](NC(=O)[C@H](CC(C)C)NC(=O)[C@](C)(Cc1ccc(O)cc1)NC(=O)[C@@H](CCC(=O)O)NC(=O)[C@@H](NC(=O)[C@H](Cc1ccccc1)NC(=O)[C@H](CCC(=O)O)NC(=O)C(C)(C)NC(=O)[C@H](CCC(N)=O)NC(=O)[C@H](C)NC(=O)[C@H](CCCCNC(=O)COCCOCCNC(=O)COCCOCCNC(=O)CC[C@H](NC(=O)CCCCCCCCCCC)C(=O)O)NC(=O)[C@H](CCCN)NC(=O)[C@H](CC(=O)O)NC(=O)[C@H](CC(C)C)NC(=O)[C@](C)(CC(C)C)NC(=O)[C@@H](NC(=O)[C@H](CO)NC(=O)[C@H](Cc1ccncc1)NC(=O)[C@H](CC(=O)O)NC(=O)[C@H](CO)NC(=O)[C@@H](NC(=O)[C@](C)(Cc1ccccc1F)NC(=O)[C@@H](NC(=O)CNC(=O)[C@H](CCC(=O)O)NC(=O)C(C)(C)NC(=O)[C@@H](N)Cc1ccc(O)cc1)[C@@H](C)O)[C@@H](C)O)[C@@H](C)CC)[C@@H](C)CC)[C@@H](C)CC)C(N)=O)C(=O)O` [Example 141]: the Ki in experiment [1] (setting [3]) was found to be 0.194 nM; in experiment [2] (setting [4]), 0.0291 nM. In addition, the 50% effective concentration (EC50) at hGCGR (0.1% bovine casein and 1.0% human serum albumin, 37° C., geometric mean, read-out: hGCGR EC50, nM (SEM, n)) was over 9950 nM; on hGCGR (cAMP, incubated at 37° C., 0.1% bovine casein (no human serum albumin), geometric mean, read-out: hGCGR EC50, nM (SEM, n)), over 9950 nM; on hGIPR (0.1% bovine casein and 1.0% human serum albumin, 37° C., geometric mean, read-out: hGIPR EC50, nM (SEM, n)), 0.379 nM; at hGLP-1R (0.1% bovine casein and 1.0% human serum albumin, 37° C., read-out: hGLP-1R EC50, nM (SEM, n)), 5.78 nM. The Emax on hGIPR (HEK293, 0.1% bovine casein and 1.0% human serum albumin, 37° C., percent of maximal response to GIP(1-42)NH2, read-out: hGIPR Emax, % ± SEM) was 96 ± 7.42%; at hGIPR (HEK293, percent of maximal response to GIP(1-42)NH2, 37° C., 0.1% bovine casein, arithmetic mean, read-out: hGIPR Emax, % ± SEM), 98.8 ± 1.09%; at hGLP-1R (HEK293, 0.1% bovine casein and 1.0% human serum albumin, 37° C., read-out: hGLP-1R Emax, % ± SEM), 115 ± 2.04%.
With `CC[C@H](C)[C@H](NC(=O)[C@H](CC(C)C)NC(=O)[C@](C)(Cc1ccc(O)cc1)NC(=O)[C@H](CCCCNC(=O)COCCOCCNC(=O)CC[C@H](NC(=O)COCCOCCNC(=O)CC[C@H](NC(=O)CCCCCCCCCCCCC(=O)O)C(=O)O)C(=O)O)NC(=O)[C@@H](NC(=O)[C@H](Cc1ccccc1)NC(=O)[C@H](CCCN)NC(=O)C(C)(C)NC(=O)[C@H](CCC(N)=O)NC(=O)[C@H](C)NC(=O)[C@H](CCC(N)=O)NC(=O)[C@H](CCCN)NC(=O)[C@H](CC(=O)O)NC(=O)[C@H](CC(C)C)NC(=O)[C@](C)(CC(C)C)NC(=O)[C@@H](NC(=O)C(C)(C)NC(=O)[C@H](Cc1ccncc1)NC(=O)[C@H](CC(=O)O)NC(=O)[C@H](CO)NC(=O)[C@@H](NC(=O)[C@](C)(Cc1ccccc1F)NC(=O)[C@@H](NC(=O)CNC(=O)[C@H](CCC(=O)O)NC(=O)C(C)(C)NC(=O)[C@@H](N)Cc1ccc(O)cc1)[C@@H](C)O)[C@@H](C)O)[C@@H](C)CC)[C@@H](C)CC)C(=O)N[C@@H](CCCCNC(=O)COCCOCCNC(=O)CC[C@H](NC(=O)COCCOCCNC(=O)CC[C@H](NC(=O)CCCCCCCCCCCCC(=O)O)C(=O)O)C(=O)O)C(=O)NCC(=O)NCC(=O)N1CCC[C@H]1C(=O)N[C@@H](CO)C(=O)N[C@@H](CO)C(=O)NCC(=O)N[C@@H](C)C(=O)N1CCC[C@H]1C(=O)N1CCC[C@H]1C(=O)N1CCC[C@H]1C(=O)N[C@@H](CO)C(N)=O` [Example 484], the inhibition constant (Ki) in experiment [1] (setting [3]) is 0.268 nM; in experiment [2] (setting [4]), 0.0296 nM. The concentration giving a half-maximal response (EC50) was over 9950 nM at hGCGR (cAMP, 37° C., 0.1% bovine casein (no human serum albumin), geometric mean, read-out: hGCGR EC50, nM (SEM, n)); over 9950 nM at hGCGR (cAMP, 37° C., 0.1% bovine casein and 1.0% human serum albumin, geometric mean (SEM, n), read-out: hGCGR EC50, nM (SEM, n)); 0.0136 nM on hGIPR (cAMP, 37° C., 0.1% bovine casein (no human serum albumin), geometric mean, read-out: hGIPR EC50, nM (SEM, n)); 0.453 nM at hGIPR (cAMP, 37° C., 0.1% bovine casein and 1.0% human serum albumin, geometric mean (SEM, n), read-out: hGIPR EC50, nM (SEM, n)); 0.17 nM on hGLP-1R (cAMP, 37° C., 0.1% bovine casein (no human serum albumin), read-out: hGLP-1R EC50, nM (SEM, n)). For the same compound, the Emax was found to be 91.3% at hGIPR (HEK293, cAMP, 37° C., 0.1% bovine casein and 1.0% human serum albumin, percent of maximal response to GIP(1-42)NH2, read-out: hGIPR Emax, % ± SEM); 118% on hGLP-1R (HEK293, cAMP, 37° C., 0.1% bovine casein, arithmetic mean, read-out: hGLP-1R Emax, % ± SEM).
On to `CC[C@H](C)[C@H](NC(=O)[C@H](CC(C)C)NC(=O)[C@](C)(Cc1ccc(O)cc1)NC(=O)[C@H](CCCCNC(=O)COCCOCCNC(=O)COCCOCCNC(=O)COCCOCCNC(=O)CC[C@H](NC(=O)CCCCCCCCCOc1ccc(C(=O)O)cc1)C(=O)O)NC(=O)[C@@H](NC(=O)[C@H](Cc1ccccc1)NC(=O)[C@H](CCCN)NC(=O)C(C)(C)NC(=O)[C@H](CCC(N)=O)NC(=O)[C@H](C)NC(=O)[C@H](CCC(N)=O)NC(=O)[C@H](CCCN)NC(=O)[C@H](CC(=O)O)NC(=O)[C@H](CC(C)C)NC(=O)[C@](C)(CC(C)C)NC(=O)[C@@H](NC(=O)C(C)(C)NC(=O)[C@H](Cc1ccncc1)NC(=O)[C@H](CC(=O)O)NC(=O)[C@H](CO)NC(=O)[C@@H](NC(=O)[C@](C)(Cc1ccccc1F)NC(=O)[C@@H](NC(=O)CNC(=O)[C@H](CCC(=O)O)NC(=O)C(C)(C)NC(=O)[C@@H](N)Cc1ccc(O)cc1)[C@@H](C)O)[C@@H](C)O)[C@@H](C)CC)[C@@H](C)CC)C(=O)N[C@@H](CCCCNC(=O)COCCOCCNC(=O)COCCOCCNC(=O)COCCOCCNC(=O)CC[C@H](NC(=O)CCCCCCCCCOc1ccc(C(=O)O)cc1)C(=O)O)C(=O)NCC(=O)NCC(=O)N1CCC[C@H]1C(=O)N[C@@H](CO)C(=O)N[C@@H](CO)C(=O)NCC(=O)N[C@@H](C)C(=O)N1CCC[C@H]1C(=O)N1CCC[C@H]1C(=O)N1CCC[C@H]1C(=O)N[C@@H](CO)C(N)=O` [Example 477], for which the values for the Ki in experiment [1] and in experiment [2] were 0.143 nM and 0.0279 nM, respectively. For the same compound, the EC50 was over 9950 nM at hGCGR (hGCGR EC50, nM (SEM, n), cAMP, 37° C., 0.1% bovine casein (no human serum albumin), geometric mean); over 9950 nM at hGCGR (hGCGR EC50, nM (SEM, n), cAMP, 37° C., 0.1% bovine casein and 1.0% human serum albumin, geometric mean (SEM, n)); 0.00861 nM at hGIPR (hGIPR EC50, nM (SEM, n), cAMP, 37° C., 0.1% bovine casein (no human serum albumin), geometric mean); 0.163 nM at hGIPR (hGIPR EC50, nM (SEM, n), cAMP, 37° C., 0.1% bovine casein and 1.0% human serum albumin, geometric mean (SEM, n)); 0.143 nM at hGLP-1R (hGLP-1R EC50, nM (SEM, n), cAMP, 37° C., 0.1% bovine casein (no human serum albumin)). Moreover, the maximal effect (Emax) on hGIPR (HEK293, read-out: hGIPR Emax, % ± SEM, cAMP, 37° C., 0.1% bovine casein and 1.0% human serum albumin, percent of maximal response to GIP(1-42)NH2) is 88.1%; at hGLP-1R (HEK293, read-out: hGLP-1R Emax, % ± SEM, cAMP, 37° C., 0.1% bovine casein and 1.0% human serum albumin) it was 110%; at hGLP-1R (HEK293, read-out: hGLP-1R Emax, % ± SEM, cAMP, 37° C., 0.1% bovine casein, arithmetic mean), 110%.
